# Assay results published in publication PMC8500670, “A selective WDR5 degrader inhibits acute myeloid leukemia in patient-derived mouse models” (Science translational medicine, 2021).
# Where two headings read alike, the source gives them in different places.
# Key:
# Test in all cases: biochemical
# Parameters in all cases: protein methyltransferase selectivity panel, enzyme activity relative to DMSO controls, single concentration in duplicate
# [1] = target: PRMT6 (Homo sapiens, UniProt Q96LA8); conditions: Substrate:=GST-GAR
# Chain of PRMT6 (Q96LA8 whole entry): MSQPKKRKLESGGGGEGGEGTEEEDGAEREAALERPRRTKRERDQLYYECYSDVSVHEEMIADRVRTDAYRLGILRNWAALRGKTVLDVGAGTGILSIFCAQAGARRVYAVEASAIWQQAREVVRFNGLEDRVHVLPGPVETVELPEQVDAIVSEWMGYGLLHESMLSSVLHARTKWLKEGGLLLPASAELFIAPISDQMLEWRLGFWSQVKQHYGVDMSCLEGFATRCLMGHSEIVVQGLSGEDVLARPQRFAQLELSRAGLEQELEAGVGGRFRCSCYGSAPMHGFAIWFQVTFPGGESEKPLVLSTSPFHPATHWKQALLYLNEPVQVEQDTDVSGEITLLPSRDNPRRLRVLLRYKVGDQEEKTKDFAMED
# Protocol: (§1) We next assessed selectivity of MS67 against 22 protein methyltransferases (table S2) and a broad panel of common drug targets including 45 kinases (table S3) and 44 G protein–coupled receptors (GPCR), ion channels, and transporters (table S4). […] We subsequently determined that MS67 had moderate binding affinity (Ki = 1.0 ± 0.8 μM) to Sigma 2 receptor (fig. S10).
# [2] = target: T1, NSD3 (Homo sapiens, UniProt Q9BZ95); conditions: Substrate:=Nucleosomes
# T1 sequence (Q9BZ95 1-1437): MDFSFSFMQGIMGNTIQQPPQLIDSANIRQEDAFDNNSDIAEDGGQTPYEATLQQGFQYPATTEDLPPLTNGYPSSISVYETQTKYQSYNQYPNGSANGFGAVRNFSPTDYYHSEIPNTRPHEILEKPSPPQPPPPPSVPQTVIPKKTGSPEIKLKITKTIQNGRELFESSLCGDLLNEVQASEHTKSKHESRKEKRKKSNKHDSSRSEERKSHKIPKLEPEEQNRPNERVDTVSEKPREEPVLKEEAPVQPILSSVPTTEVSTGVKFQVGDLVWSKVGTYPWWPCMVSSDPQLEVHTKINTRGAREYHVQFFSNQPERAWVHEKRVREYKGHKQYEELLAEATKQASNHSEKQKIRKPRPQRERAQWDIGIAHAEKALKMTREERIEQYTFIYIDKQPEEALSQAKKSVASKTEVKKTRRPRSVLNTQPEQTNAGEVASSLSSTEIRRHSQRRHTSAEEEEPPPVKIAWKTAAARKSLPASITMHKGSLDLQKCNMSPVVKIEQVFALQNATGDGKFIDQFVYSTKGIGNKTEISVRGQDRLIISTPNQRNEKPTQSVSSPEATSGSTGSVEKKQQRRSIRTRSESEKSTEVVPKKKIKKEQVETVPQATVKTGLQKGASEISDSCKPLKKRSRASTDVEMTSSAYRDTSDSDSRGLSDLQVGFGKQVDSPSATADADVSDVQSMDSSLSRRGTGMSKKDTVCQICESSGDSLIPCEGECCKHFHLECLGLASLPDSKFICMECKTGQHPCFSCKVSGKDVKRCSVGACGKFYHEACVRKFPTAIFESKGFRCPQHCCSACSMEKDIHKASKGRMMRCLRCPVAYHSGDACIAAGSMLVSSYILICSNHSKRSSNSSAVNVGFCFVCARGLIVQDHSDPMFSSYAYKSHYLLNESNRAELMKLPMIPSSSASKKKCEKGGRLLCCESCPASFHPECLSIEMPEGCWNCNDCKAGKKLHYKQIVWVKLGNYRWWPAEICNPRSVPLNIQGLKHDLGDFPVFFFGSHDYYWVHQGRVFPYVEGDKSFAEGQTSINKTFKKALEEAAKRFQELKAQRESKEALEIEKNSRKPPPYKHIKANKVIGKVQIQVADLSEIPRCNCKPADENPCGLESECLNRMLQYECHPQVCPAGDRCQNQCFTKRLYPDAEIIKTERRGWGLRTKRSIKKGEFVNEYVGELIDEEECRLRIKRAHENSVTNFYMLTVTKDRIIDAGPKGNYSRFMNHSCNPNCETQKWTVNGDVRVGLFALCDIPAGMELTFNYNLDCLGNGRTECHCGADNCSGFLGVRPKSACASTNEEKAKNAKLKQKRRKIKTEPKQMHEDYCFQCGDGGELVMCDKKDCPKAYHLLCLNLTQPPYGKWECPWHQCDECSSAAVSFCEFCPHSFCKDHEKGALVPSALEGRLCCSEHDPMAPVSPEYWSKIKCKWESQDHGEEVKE
# Protocol: as §1
# [3] = target: DOT1L (Homo sapiens, UniProt Q8TEK3); conditions: Substrate:=Nucleosomes
# Chain of DOT1L (Q8TEK3 whole entry): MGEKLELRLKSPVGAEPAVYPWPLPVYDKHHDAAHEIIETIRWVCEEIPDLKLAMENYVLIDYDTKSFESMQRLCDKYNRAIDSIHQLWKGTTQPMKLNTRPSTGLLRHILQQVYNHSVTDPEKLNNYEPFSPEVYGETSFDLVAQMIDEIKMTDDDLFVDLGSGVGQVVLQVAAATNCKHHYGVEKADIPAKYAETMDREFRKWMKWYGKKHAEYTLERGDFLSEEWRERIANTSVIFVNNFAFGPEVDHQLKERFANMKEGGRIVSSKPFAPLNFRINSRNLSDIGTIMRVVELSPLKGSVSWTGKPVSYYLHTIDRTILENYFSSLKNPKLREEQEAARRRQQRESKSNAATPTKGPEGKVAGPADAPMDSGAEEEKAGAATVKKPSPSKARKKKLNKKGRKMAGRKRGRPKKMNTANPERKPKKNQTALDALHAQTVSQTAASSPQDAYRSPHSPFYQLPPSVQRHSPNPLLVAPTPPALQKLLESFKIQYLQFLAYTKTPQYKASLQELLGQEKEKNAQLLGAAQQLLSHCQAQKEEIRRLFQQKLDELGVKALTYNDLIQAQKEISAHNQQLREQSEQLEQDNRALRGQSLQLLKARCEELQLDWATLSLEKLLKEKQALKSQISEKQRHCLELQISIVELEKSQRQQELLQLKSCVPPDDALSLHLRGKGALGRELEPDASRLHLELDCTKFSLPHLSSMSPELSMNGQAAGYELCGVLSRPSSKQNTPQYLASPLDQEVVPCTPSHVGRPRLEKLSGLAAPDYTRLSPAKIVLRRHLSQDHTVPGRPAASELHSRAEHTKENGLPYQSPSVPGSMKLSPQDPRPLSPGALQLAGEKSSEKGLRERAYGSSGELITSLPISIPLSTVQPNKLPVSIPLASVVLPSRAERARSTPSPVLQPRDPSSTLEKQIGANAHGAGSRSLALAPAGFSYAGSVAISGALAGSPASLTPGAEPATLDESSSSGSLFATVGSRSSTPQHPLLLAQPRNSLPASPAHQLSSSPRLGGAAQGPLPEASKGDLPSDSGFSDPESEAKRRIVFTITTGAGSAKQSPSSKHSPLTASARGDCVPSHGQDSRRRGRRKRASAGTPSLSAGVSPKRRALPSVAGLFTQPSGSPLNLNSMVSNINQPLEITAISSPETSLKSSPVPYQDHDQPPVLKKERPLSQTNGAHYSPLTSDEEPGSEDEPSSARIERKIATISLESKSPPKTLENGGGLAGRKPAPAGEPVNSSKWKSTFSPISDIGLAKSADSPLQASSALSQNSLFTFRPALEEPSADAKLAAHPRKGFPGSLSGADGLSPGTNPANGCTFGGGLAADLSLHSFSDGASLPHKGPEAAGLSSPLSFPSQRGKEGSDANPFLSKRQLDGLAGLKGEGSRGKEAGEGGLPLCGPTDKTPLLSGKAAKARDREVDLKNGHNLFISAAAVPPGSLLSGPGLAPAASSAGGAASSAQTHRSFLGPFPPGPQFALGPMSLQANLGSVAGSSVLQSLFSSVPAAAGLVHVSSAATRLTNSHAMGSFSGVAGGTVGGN
# Protocol: as §1
# [4] = target: SETD2 (Homo sapiens, UniProt Q9BYW2); conditions: Substrate:=Nucleosomes
# Chain of SETD2 (Q9BYW2 whole entry): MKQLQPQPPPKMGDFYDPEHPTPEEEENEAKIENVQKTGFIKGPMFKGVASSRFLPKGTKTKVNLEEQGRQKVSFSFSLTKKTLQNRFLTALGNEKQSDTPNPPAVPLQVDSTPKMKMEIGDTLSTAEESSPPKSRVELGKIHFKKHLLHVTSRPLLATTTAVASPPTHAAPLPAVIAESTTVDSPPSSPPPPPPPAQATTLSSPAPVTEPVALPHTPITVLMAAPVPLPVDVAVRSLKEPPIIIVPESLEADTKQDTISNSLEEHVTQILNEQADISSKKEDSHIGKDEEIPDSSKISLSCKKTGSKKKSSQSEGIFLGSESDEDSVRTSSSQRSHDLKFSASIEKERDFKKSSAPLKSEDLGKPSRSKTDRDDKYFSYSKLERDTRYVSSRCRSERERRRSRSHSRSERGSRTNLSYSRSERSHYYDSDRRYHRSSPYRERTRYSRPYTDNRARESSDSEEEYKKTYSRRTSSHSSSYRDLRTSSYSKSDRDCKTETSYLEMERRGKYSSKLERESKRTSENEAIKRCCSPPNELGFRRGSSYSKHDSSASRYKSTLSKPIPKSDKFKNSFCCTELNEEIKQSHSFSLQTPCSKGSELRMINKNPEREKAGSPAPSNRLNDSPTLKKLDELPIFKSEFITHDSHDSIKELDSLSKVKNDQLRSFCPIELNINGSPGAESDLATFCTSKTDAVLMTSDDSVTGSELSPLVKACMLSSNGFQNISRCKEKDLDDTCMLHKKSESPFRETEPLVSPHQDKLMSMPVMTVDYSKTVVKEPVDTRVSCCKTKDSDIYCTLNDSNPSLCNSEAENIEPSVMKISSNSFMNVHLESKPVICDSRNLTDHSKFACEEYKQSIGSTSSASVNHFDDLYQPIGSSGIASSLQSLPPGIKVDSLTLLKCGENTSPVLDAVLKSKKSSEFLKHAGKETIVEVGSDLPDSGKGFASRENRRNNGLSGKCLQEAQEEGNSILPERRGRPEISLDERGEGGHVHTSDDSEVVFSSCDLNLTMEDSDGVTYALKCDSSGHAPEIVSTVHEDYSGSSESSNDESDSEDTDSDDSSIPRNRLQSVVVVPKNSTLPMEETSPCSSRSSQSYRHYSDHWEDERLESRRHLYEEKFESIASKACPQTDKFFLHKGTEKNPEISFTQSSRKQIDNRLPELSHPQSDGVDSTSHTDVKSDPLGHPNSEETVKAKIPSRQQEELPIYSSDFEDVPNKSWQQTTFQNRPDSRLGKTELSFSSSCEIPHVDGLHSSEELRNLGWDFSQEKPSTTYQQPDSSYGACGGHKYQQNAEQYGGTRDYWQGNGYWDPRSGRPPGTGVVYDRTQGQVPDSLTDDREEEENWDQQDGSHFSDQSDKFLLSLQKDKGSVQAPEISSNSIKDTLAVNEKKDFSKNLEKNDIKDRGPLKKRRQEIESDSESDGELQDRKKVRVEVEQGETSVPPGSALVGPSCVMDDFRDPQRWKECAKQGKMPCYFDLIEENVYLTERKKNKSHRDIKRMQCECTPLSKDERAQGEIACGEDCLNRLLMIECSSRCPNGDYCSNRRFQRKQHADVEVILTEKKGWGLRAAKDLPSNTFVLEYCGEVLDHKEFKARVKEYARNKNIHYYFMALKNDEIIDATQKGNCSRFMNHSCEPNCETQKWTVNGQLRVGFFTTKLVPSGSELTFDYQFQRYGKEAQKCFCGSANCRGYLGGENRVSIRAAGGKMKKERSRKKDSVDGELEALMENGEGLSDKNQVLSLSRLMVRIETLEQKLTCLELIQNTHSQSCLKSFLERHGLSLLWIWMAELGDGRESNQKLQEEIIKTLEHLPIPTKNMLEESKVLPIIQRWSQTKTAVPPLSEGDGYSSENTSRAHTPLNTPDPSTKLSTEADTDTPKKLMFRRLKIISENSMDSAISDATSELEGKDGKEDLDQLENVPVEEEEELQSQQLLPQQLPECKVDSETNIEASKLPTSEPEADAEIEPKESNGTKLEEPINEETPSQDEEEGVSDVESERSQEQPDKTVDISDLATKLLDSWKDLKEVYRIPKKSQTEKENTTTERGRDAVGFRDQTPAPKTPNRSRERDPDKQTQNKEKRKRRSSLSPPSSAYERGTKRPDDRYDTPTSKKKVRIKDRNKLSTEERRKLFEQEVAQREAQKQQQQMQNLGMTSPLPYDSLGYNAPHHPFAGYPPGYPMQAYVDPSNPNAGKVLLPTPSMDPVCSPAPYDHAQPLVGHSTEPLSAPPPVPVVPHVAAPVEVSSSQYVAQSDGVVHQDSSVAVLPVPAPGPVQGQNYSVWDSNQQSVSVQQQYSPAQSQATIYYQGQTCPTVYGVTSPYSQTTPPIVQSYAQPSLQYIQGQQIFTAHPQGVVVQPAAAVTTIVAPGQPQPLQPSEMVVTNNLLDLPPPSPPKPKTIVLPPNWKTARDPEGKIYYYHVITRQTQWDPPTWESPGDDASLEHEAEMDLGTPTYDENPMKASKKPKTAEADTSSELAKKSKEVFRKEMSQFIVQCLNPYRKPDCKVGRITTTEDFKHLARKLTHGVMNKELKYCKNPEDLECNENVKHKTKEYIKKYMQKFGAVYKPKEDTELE
# Protocol: as §1
# [5] = target: T2, SMYD3 (Homo sapiens, UniProt Q9H7B4); conditions: Substrate:=MEKK2
# T2 sequence (Q9H7B4 1-428): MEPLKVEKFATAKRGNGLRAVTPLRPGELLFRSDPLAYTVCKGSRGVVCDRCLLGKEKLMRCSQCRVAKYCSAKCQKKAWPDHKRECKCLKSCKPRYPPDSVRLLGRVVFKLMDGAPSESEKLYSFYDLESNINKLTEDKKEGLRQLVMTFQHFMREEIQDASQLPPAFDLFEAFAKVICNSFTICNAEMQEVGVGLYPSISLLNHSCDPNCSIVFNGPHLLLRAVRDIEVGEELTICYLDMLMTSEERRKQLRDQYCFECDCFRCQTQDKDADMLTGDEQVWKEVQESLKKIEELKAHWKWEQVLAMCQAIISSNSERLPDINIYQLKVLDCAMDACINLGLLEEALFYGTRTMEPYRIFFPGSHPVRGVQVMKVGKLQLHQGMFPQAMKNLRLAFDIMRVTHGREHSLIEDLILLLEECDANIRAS
# Protocol: as §1
# [6] = read-out: Enzyme % Activity (relative to DMSO controls) / MS67 / 10 / Data 1:
# [7] = read-out: Enzyme % Activity (relative to DMSO controls) / MS67 / 10 / Data 2:
compound,measurement,setting,value
Cc1ncsc1-c1ccc([C@H](C)NC(=O)[C@@H]2C[C@@H](O)CN2C(=O)[C@@H](NC(=O)CNC(=O)c2ccc(F)c(-c3ccc(N4C[C@@H](C)N(C)[C@@H](C)C4)c(NC(=O)c4c[nH]c(=O)cc4C(F)(F)F)c3)c2)C(C)(C)C)cc1 [MS67],remaining activity at 10 µM,[1]; [6],97.1%
same,remaining activity at 10 µM,[1]; [7],95.1%
same,remaining activity at 10 µM,[2]; [6],136%
same,remaining activity at 10 µM,[2]; [7],145%
same,remaining activity at 10 µM,[3]; [6],95.8%
same,remaining activity at 10 µM,[3]; [7],92.3%
same,remaining activity at 10 µM,[4]; [6],112%
same,remaining activity at 10 µM,[4]; [7],110%
same,remaining activity at 10 µM,[5]; [6],103%
same,remaining activity at 10 µM,[5]; [7],116%
